The text below walks through data of US20230322706A1, “NOVEL BIARYL DERIVATIVE USEFUL AS DIACYLGLYCEROL ACYLTRANSFERASE 2 INHIBITOR, AND USE THEREOF” (LG CHEM, LTD., priority 2020, published 2023).

The target in the assay is human DGAT2 (Homo sapiens (Human), UniProt Q96PD7). The assay is described as follows: Measurement of inhibitory effect against DGAT2 enzyme activity (SPA, Phospholipid FlashPlate, [14C]-TG production). Format: biochemical. To be noted: recombinant human DGAT2 membrane protein from Sf-21 cells; inhibition of [14C]-TG production; 37° C. From the text: Experimental Example: Measurement of Inhibitory Effect Against DGAT2 Enzyme Activity
Chain of human DGAT2 (Q96PD7 whole entry): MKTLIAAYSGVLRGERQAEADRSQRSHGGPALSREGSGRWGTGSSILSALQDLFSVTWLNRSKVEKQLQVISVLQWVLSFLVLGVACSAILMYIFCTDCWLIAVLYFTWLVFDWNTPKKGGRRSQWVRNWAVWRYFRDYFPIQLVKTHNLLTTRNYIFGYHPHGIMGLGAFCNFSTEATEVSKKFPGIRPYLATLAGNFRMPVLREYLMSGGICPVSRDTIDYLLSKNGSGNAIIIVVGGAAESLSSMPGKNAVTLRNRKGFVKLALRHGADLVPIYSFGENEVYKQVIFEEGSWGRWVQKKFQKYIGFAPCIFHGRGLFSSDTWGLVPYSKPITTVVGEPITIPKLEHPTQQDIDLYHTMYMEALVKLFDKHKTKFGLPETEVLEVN
1. Preparation of DGAT2 Expression Vector
In order to prepare the pBacPAK9-DGAT2, which is DGAT2 expression vector, the human DGAT2 gene amplified by polymerase chain reaction (PCR) was cloned into the EcoR1 and Xho1 sites of the pBacPAK9 (clonctech) vector. The nucleotide sequence of the primers used in PCR was the forward primer 5′ […] and the reverse primer 5′ […]. The composition of the reaction solution was to contain 50 ng of cDNA clone (OriGene), 200 μM of dATP, dCTP, dTTP, dGTP, 200 nM of each primer, 1 unit of Tag DNA Polymerase (Toyobo), 1x PCR buffer, and the final volume was adjusted to 20 μl. The reaction conditions were denatured at 95° C. for 5 minutes, followed by 30 times of 94° C. for 20 seconds, 60° C. for 20 seconds, and 72° C. for 90 seconds, followed by further reaction at 72° C. for 7 minutes.
2. DGAT2 Expression and Preparation of Membrane Protein
Recombinant human DGAT2 protein was expressed in Sf-21 cells, which are insect cells, by using the BacPack baculovirus expression system (Clontech). The brief manufacturing process is as follows. First, the pBacPAK9-DGAT2 expression vector was transfected with BacPAK6 virus DNA (Bsu36I digest) into sf21 cells using Bacfectin to prepare a recombinant DGAT2 expressing baculovirus. The thus prepared baculovirus was infected with Sf-21 cells at 10 MOI (multiplicity of infection), and after 72 hours, infected insect cells were collected and membrane proteins were isolated. For membrane protein separation, the cell pellet was dissolved in a sucrose solution containing 250 mM sucrose, 10 mM Tris (pH 7.4), and 1 mM ethylenediamine-tetraacetic acid (EDTA), and then homogenized by using a dounce homogenizer, and the supernatant was taken by centrifuging at 600×g for 15 minutes, and centrifuged at 100,000×g for 1 hour to discard the supernatant, and the remaining pellet was resuspended in 20 mM HEPES buffer (pH 7.4). The prepared DGAT2 overexpressing membrane protein was dispensed in 100 μl and stored at −80° C. until use. Protein concentration was quantified by using the BCA Protein Assay Kit (Thermo Scientific).
3. Measurement of Inhibitory Effect Against DGAT2 Enzyme Activity
In vitro DGAT2 analysis was performed using a Phospholipid Flash Plate (PerkinElmer) based on the principle of SPA (Scintilation Proximity Assay). First, DGAT2 inhibition compounds serially diluted 5 times from 3 nM to 10 μM (final concentration, 1% DMSO) were mixed in a buffer solution containing 2 μg DGAT2-membrane protein and 20 mM HEPES, 20 mM MgCl2, 1 mg/mL BSA, 50 μM 1,2 sn-oleoyl glycerol (Sigma), put in a 96-well flash plate (FlashPlate) and reacted at 37° C. for 20 minutes, and then 1 μM [14C] ole oil CoA (PerkinElmer, NEC651050UC) was added to be a final volume of 100 μL and further reacted at 37° C. for 15 minutes. After the enzymatic reaction was completed, 100 μL of isopropanol was added, the plate was sealed with a film, and the plate was shaken slowly in a plate shaker. The next day, the amplified scintillation signal (cpm) in Topcounter (Packard) was measured to measure the degree of production of [14C]-labeled triacyl glycerol (TG) as a reaction product. The measured value when the compound was not treated was used as a positive control, and the measured value of the compound treated group was calculated as a relative % to measure the inhibition effect of the compound on TG production. The IC50 value, which is the concentration of the compound that inhibits TG production by 50%, was determined by treating the response value according to the compound concentration with a nonlinear regression curve using PRISM (Graphpad Inc.).

On to `CCOc1ccccc1Oc1cccc(-c2cncc(Nc3nccc(-c4ccc(CC(=O)O)cc4)n3)n2)c1` [Example 20, 2-(4-(2-((6-(3-(2-ethoxyphenoxy)phenyl)pyrazin-2-yl)amino)pyrimidin-4-yl)phenyl)acetic acid], for which the IC50 was 3.9 µM.
